Assay [1] addresses recombinant APS3v-HLA-DR3 (Homo sapiens, UniProt P01903+P01911, A100K/A102G/A103R/F55Y/I96L/K41T/P40S/Q125H/Q178H/Q39Y/R42S/S66N/T106N/W38E/Y61H). Kind of assay: ELISA inhibition assay of biotinylated peptide binding to recombinant APS3v-HLA-DR3. As to conditions: ELISA inhibition assay, final concentration 0.4 mM. Here is the method:
An in vitro binding assay was performed. […] On the day before the immunoassay was performed, a 96-well DELFIA yellow plate (PerkinElmer Life Science) was coated overnight with 20 μg/ml of L243 antibody [Hybridoma was purchased from ATCC, catalogue number HB-55, and IgG was purified by QED Bioscience (San Diego, CA)] in bicarbonate buffer, pH 9.6 (Sigma-Aldrich). L243 is a monoclonal antibody that specifically recognizes the DRa chain of HLA-DR when it is properly folded and complexed with the b chain. The plate was then washed with DELFIA wash buffer (diluted 1:25 from DELFIA wash concentrate, PerkinElmer) to wash off the excess L243 antibody. Blocking was performed using 2.5% BSA in PBS at room temperature for 1 h. After washing 4 times, 100 μl of the pre-incubated mix (containing recombinant APS3v-HLA-DR3 protein, APO, and small molecules) were added onto the plate and shaken at slow speed for 2 h at room temperature. After washing 4 times, DELFIA Europium-labeled streptavidin (PerkinElmer) diluted in DELFIA assay buffer (PerkinElmer) was added for 30 min and shaken at slow speed at room temperature. After washing for 6 times, DELFIA Enhancement Solution was added for 1 h until the optimal signal was reached. Time-resolved fluorescence was measured using the BMG reader (BMG Labtech, Cary, NC). A virtual screen identified 100 small molecules that were predicted to block the unique APS3v-HLA-DR3 pocket. To produce a manageable selection of compounds for validation we clustered the 100 compounds by their simplified molecular input line entry system (SMILES) similarity into 20 clusters. Of the 20 clusters we selected the top scoring members in each cluster. We have enhanced this list to include a total of 11 compounds that blocked APS3v-HLA-DR3, the key HLA-DR3 pocket that triggers APS3v. We tested the selected 11 small molecules identified by the virtual screen in our in vitro ELISA, to test whether the 11 small molecules can block APO peptide (the strongest known peptide binder to HLA-DR3) binding to recombinant APS3v-HLA-DR3. Of the 4 validated small molecules we selected S53 for further testing because it is the only one that has been used in humans before. […] ELISA was performed as previously described.

Assay [2] concerns splenocytes and draining lymph node cells of immunized NOD-DR3 mice. Kind of assay: Small molecule inhibition of cytokine production ex vivo (Milliplex). Format: cell-based, humanized NOD-DR3 mice. Set-up: GAD.492-induced IFN-g production: unit not given here. The note with it: 1 μM small molecule + GAD.492 20 μg/ml, 48 h; GAD.492 alone 56.3. The procedure:
(§1) Cytokine Assays: Milliplex mouse cytokines/chemokine magnetic panel (Catalog no. MCYTOMAG-70K, EMD Millipore Corporation, Billerica, MA) was used to assay the cytokines, as described in the art. Briefly, splenocytes were plated at 2×10^6 cells per well in 500 μl of medium (RPMI/10% FBS). Supernatants from stimulated lymphocytes were collected 48 h after stimulation with peptides and stored in −80° C. until the assay was performed. The 96-well plate supplied in the kit was washed with the wash buffer supplied and the plate was shaken for 10 min at room temperature. Standards and quality controls were added, followed by the samples. The pre-mixed beads (Interferon gamma and IL-2) were sonicated, vortexed and added to the wells. After shaking the plate overnight at 4° C., the plate was washed twice with wash buffer. Detection antibodies were added for 1 h at room temperature, and Streptavidin-Phycoerythrin was added for 30 min at room temperature. The plate was washed twice and sheath fluid was added to resuspend the beads for 5 min before reading in Luminex 200 with xPONENT software (Luminex, Austin, Texas).
Small Molecule Inhibition of Cytokine Production Ex Vivo: Eight NOD-DR3 mice were immunized with the three thyroidal/islet peptides. Upon sacrifice, splenocytes were incubated with 1 μM of small molecules (S5, S9, S15, S53) together with TPO.758 (20 μg/ml), GAD.492 (20 μg/ml) or Tg.1571 (20 μg/ml) respectively to assess the blockade of these peptides' presentation by the tested small molecules. Supernatants from stimulated lymphocytes were collected 48 h after stimulation with peptides and small molecules, and stored in −80° C. until the cytokine assay was performed. […]

Assay [3] shares this test system. Kind of assay: Interferon gamma response of lymphocytes of co-immunized NOD-DR3 mice to the peptides. Format: cell-based, humanized NOD-DR3 mice. As to conditions: lymphocytes of mice co-immunized with Tg.1571, GAD.492 and TPO.758, stimulated 48 hours.
Text: Induction of T-Cell Response to Islet and Thyroid Autoantigens in Humanized NOD-DR3 Mice as a Model of APS3v: Previously we have identified 4 thyroid and islet peptides that triggered T-cell responses inNOD-DR3mice—Tg.1571,GAD.492, TPO.338 and TPO.758 (12). However, only 3 of these peptides (Tg.1571, GAD.492, and TPO.758) elicited significant B-cell (antibody) responses. Therefore, we concluded that these 3 peptides are the major T-cell epitopes in APS3v and used them to induce a model of APS3v in humanized NOD-DR3mice. To induce the APS3v model, 22 female NOD-DR3 mice 4-6 weeks old were co-immunized subcutaneously with these three peptides: Tg.1571, GAD.492 and TPO.758 (100 μg each peptide), in Complete Freund's Adjuvant (CFA, Sigma-Aldrich). Mice were immunized with peptides on day 0 and boosted on day 7, then sacrificed on day 21. As negative control, humanized NOD-DR3 littermates were immunized with PBS emulsified in CFA.
as §1, with “Texas). […]” for “Texas).”

Chain of recombinant APS3v-HLA-DR3 (P01911 30-227 W38E/Q39Y/P40S/K41T/R42S/F55Y/Y61H/S66N/I96L/A100K/A102G/A103R/T106N/Q125H/Q178H): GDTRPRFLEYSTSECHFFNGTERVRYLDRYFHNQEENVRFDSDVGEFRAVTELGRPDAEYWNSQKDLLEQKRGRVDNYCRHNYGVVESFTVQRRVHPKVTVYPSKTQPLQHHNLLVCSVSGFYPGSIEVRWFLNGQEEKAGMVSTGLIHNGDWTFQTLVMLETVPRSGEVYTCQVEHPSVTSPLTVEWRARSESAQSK
Chain of recombinant APS3v-HLA-DR3 (P01903 26-216): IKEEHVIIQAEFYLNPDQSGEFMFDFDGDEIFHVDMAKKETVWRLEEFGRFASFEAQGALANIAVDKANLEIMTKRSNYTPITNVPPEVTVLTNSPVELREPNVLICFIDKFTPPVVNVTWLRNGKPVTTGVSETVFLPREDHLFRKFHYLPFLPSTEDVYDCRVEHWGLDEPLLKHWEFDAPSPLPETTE

Consider `Cc1ccc(-c2nnc(Nc3ccc(C(=O)Nc4ccccc4)cc3)c3ccccc23)cc1S(N)(=O)=O` [S5], for which the “inhibition of binding of the 3 peptides (TPO.758, GAD.492, Tg.1571) to the HLA-DR3 pocket” value (shortened to “inhibition of binding of the 3 peptides”) in assay [1] is given as “significant inhibition of binding for all 3 peptides”.

As to `Cc1ccccc1Nc1nnc(-c2ccc(C)c(S(N)(=O)=O)c2)c2ccccc12` [S9], the “inhibition of binding of the 3 peptides” value in assay [1] was “only blocked GAD.492 and Tg.1571 binding”.

Regarding `COc1ccc(Nc2nnc(-c3ccc(C)c(S(N)(=O)=O)c3)c3ccccc23)cc1C(N)=O` [S15], in assay [1], the “inhibition of binding of the 3 peptides” value was “significant inhibition of binding for all 3 peptides”. Also, the “GAD.492-induced IFN-g production” value in assay [2] is recorded as 30.1.

As to “GAD.492: glutamic acid decarboxylase 65 (GAD65) peptide REGYEMVFDGKPQHTNVCF (SEQ ID NO: 2) (GAD.492)”, the interferon gamma (IFN-g) response to the peptide in assay [3] is 99.6 pg/mL.

As to “TPO.758: thyroid peroxidase (TPO) peptide ESGRRVLVYSCRHGYELQG (SEQ ID NO: 3) (TPO.758)”, the interferon gamma (IFN-g) response to the peptide in assay [3] amounted to 717 pg/mL.

In assay [3], “Tg.1571: thyroglobulin (Tg) peptide EKVPESKVIFDANAPVAVRSKVPDSEF (SEQ ID NO: 1) (Tg.1571)” showed an interferon gamma (IFN-g) response to the peptide of 24.2 pg/mL.
